Reference: ChEMBL document CHEMBL1201862, “PubChem BioAssay data set” (2004)
Values belong to the compound of their own block, whether it stands above or below them. Active and inactive are the calls of the source.

What was measured:
[1] = molecular target: T1, Rac GTPase-activating protein 1 (Homo sapiens, UniProt Q9H0H5); assay: MgcRacGAP GTPase-activating activity inhibitors, confirmation, biochemical, ADP Hunter fluorescence, primary and confirmatory (AID 624330); assay type: functional
T1 sequence (Q9H0H5 whole entry): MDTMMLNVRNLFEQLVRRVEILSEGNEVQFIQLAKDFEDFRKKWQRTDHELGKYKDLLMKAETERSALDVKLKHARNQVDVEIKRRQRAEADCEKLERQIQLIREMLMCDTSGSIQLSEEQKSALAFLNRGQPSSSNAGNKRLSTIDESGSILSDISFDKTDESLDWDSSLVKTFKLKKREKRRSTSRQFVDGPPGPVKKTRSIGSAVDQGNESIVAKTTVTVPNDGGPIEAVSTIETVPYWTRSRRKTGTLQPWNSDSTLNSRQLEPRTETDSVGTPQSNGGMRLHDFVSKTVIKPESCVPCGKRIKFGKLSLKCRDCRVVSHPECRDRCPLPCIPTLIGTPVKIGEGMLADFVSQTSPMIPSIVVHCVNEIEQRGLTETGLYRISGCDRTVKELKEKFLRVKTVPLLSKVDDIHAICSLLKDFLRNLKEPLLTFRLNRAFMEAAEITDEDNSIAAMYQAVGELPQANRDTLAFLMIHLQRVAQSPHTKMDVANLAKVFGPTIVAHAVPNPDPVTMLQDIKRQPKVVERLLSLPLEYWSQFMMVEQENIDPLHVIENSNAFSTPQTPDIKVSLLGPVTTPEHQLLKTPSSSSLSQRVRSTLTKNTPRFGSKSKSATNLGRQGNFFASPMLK

[2] = molecular target: T2, Heat shock factor protein 1 (Mus musculus, UniProt P38532); assay: inhibition of MG132-induced HSE-luciferase signal, confirmation, cell-based, NIH3T3, luminescence, dose retest (AID 2382); assay type: functional;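 note: NIH3T3 fibroblasts with HSF1-driven luciferase reporter stressed by proteasome inhibitor MG132; luminescence from HSF1-driven luciferase expression after 8 hours of MG132 stress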
T2 sequence (P38532 whole entry): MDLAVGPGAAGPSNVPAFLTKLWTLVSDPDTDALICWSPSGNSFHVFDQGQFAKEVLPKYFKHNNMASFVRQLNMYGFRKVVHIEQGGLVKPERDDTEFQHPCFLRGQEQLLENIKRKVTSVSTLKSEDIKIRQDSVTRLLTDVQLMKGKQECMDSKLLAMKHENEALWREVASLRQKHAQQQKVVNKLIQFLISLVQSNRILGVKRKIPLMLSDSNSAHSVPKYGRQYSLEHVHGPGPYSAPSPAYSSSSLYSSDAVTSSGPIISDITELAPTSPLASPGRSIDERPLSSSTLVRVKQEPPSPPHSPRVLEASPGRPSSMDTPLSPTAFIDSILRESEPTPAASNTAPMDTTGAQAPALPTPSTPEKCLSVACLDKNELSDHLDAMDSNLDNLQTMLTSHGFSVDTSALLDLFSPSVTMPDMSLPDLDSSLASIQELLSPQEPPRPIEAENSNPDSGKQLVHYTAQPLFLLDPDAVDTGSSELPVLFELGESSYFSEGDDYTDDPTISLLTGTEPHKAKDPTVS

[3] = molecular target: Luciferin 4-monooxygenase (Photinus pyralis, UniProt P08659); assay: firefly luciferase enzyme inhibitors, dose response, biochemical, luminescence (AID 1891)
[4] = Luminescence Cell-Based Dose Confirmation HTS to Identify Inhibitors of Platelet Dense Granule Release. [Related pubchem assays: 1663 (Primary HTS), 1678 (Summary of Project)]; assay type: functional
[5] = molecular target: T3, Corticotropin-releasing factor receptor 2/Corticotropin-releasing factor-binding protein (Homo sapiens, UniProt P24387+Q13324); assay: Dose Response confirmation of uHTS hits for small molecule antagonists of the CRF-binding protein and CRF-R2 receptor complex.; assay type: functional; conditions: read-out: IC50_Mean
T3 sequence (Q13324 whole entry): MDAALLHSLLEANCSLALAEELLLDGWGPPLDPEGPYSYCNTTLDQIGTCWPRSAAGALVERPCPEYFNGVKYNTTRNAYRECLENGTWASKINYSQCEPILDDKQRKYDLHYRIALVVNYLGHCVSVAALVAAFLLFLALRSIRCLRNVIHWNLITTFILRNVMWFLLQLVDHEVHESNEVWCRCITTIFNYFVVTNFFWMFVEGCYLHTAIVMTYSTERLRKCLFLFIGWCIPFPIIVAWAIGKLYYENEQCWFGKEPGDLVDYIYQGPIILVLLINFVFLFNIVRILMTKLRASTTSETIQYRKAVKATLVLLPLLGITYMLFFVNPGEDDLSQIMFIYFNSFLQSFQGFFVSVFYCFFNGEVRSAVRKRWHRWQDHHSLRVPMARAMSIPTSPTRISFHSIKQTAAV
T3 sequence (P24387 whole entry): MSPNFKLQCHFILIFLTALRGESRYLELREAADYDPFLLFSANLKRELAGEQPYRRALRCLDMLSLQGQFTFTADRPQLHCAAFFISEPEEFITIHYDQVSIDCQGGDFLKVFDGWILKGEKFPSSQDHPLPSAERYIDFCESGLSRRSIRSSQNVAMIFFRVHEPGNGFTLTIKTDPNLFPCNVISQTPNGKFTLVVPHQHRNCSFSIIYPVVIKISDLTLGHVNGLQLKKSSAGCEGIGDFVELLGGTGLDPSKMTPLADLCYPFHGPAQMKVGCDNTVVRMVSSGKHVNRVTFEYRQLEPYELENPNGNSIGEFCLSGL

[6] = molecular target: T3, Corticotropin-releasing factor receptor 2/Corticotropin-releasing factor-binding protein; assay: activators of CRF receptor 2 with binding protein – uHTS hits, confirmation (AID 602473); assay type: functional; conditions: read-out: EC50_Mean
[7] = Luminescence Cell-Based Dose Retest to Confirm Inhibitors of Cancer Stem Cells. [Related pubchem assays (depositor defined):AID2717, AID2721]; assay type: functional; conditions: Homo sapiens
Cytochrome P450 2C19 = Cytochrome P450 2C19 (Homo sapiens, UniProt P33261); assay: Cytochrome panel assay with activity outcomes. Panel member name: p450-cyp2c19 Compounds with AC50 equal or less than 10 uM are considered active; assay type: functional; conditions: read-out: AC50
[8] = P. falciparum Dd2 growth inhibitors, dose response, SYBR Green, cherry-picked samples (AID 1159567); assay type: functional, cell-based
Cytochrome P450 2C9 = Cytochrome P450 2C9 (Homo sapiens, UniProt P11712)
Cytochrome P450 2C9, sequence (P11712 whole entry): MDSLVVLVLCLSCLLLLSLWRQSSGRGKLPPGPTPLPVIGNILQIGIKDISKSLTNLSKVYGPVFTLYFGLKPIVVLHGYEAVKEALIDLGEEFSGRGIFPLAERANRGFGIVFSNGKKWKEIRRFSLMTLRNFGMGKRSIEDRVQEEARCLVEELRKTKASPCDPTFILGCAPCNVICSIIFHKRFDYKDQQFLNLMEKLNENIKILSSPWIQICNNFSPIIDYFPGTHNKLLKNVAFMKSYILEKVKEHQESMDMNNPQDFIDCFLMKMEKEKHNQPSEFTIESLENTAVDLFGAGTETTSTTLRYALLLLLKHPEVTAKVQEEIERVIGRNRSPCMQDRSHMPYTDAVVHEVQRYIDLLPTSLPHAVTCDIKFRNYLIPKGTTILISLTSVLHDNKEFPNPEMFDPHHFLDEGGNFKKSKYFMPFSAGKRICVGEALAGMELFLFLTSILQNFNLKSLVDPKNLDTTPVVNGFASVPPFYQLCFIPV

Luciferin 4-monooxygenase, sequence (P08659 whole entry): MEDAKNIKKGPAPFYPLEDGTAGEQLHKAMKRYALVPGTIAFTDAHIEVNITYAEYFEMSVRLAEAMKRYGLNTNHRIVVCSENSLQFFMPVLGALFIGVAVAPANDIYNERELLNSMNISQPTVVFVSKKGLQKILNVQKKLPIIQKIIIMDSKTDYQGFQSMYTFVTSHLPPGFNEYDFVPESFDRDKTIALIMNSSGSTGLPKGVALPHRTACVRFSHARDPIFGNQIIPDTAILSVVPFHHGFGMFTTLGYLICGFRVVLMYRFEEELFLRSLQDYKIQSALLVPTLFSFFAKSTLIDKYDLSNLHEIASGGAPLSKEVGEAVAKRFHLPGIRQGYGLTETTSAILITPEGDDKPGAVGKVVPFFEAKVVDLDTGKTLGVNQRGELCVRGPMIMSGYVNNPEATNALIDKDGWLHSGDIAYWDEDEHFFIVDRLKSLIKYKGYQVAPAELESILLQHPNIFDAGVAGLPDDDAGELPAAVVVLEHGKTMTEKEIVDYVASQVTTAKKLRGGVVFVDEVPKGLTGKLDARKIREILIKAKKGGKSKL
Cytochrome P450 2C19, sequence (P33261 whole entry): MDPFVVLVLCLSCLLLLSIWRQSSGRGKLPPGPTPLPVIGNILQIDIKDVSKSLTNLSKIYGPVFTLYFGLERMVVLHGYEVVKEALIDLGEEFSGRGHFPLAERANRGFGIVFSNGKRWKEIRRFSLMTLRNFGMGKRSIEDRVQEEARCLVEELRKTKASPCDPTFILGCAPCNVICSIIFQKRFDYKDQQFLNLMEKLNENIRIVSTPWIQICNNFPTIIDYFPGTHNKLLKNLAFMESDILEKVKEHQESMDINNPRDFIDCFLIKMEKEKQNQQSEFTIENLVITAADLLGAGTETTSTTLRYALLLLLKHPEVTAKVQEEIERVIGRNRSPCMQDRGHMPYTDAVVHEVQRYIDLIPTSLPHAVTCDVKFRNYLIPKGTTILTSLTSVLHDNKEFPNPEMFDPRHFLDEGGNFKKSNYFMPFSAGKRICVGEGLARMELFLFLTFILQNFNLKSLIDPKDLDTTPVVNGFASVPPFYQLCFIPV

Compound: Cc1cccc(C(=N)NOC(=O)c2ccc(Cl)cc2Cl)c1
EC50 [3]: 0.761 µM (active)
EC50 [4]: 3.2 µM (active)

Compound: CCOC(=O)C1CCCN(C(=O)CCCn2nc(C)n3c(cc4sccc43)c2=O)C1 (stereo not drawn)
EC50 [3]: > 112 µM (not active)
EC50 [4]: > 112 µM (not active)

Compound: O=C(Nc1cccc(O)c1)c1noc2c1CCc1ccccc1-2
EC50 [3]: 1.03 µM (active)
EC50 [4]: 8.29 µM (active)

Compound: N#Cc1nc(Cc2ccccc2)oc1N1CCCC1
EC50 [3]: 18.5 µM (active)
EC50 [4]: > 112 µM (not active)

Compound: CN(C)C(CNS(=O)(=O)c1ccc2ccccc2c1)c1ccccc1 (stereo not drawn)
AC50 [7]: > 195 µM (inactive)

Compound: O=c1cc(N2CCCCC2)c(-c2ccccc2)nn1Cc1ccccc1
AC50 [7]: 2.06 µM (active)

Compound: Cc1cc(NC(=O)CN2CCC(C)CC2)no1
IC50 [1]: 253 µM (active)

Compound: Cc1nc2oc3c(NCC4CCCO4)ncnc3c2c2c1COC(C)(C)C2 (stereo not drawn)
EC50 [3]: > 112 µM (not active)
EC50 [4]: > 112 µM (not active)

Compound: O=C(Nc1cccc(F)c1)C1CCN(C(=O)Cc2ccccc2)CC1
EC50 [3]: > 112 µM (not active)
EC50 [4]: > 112 µM (not active)

Compound: O=C(Cn1c(O)c(N=NC(=O)c2ccncc2)c2ccccc21)Nc1ccccc1
EC50 [3]: > 112 µM (not active)
EC50 [4]: > 112 µM (not active)

Compound: O=C(c1ccc(S(=O)(=O)Nc2ccccc2)cc1)N1CCCC1
EC50 [3]: > 112 µM (not active)
EC50 [4]: > 112 µM (not active)

Compound: COc1ccc(Br)cc1CNC(=O)c1ccc2c(c1)N(C)CCS2
EC50 [3]: > 112 µM (not active)
EC50 [4]: > 112 µM (not active)

Compound: CC[C@@H]1CC=C[C@H]2[C@H]1C(=O)N(Cc1ccccc1)[C@H]2c1ccoc1
AC50 [7]: 5.39 µM (active)

Compound: CN1CCc2c(sc(NC(=O)c3ccc(S(=O)(=O)N4CCc5ccccc54)cc3)c2C(N)=O)C1
AC50 [7]: 2.91 µM (active)

Compound: Cc1cc(-c2ccc(S(=O)(=O)N3CCN(c4ccccc4F)CC3)s2)on1
EC50 [3]: > 112 µM (not active)
EC50 [4]: > 112 µM (not active)

Compound: CCOc1ccc(CN2CCN(CCCn3cccn3)CC2CCO)cc1 (stereo not drawn)
EC50 [3]: > 112 µM (not active)
EC50 [4]: 83.2 µM (active)

Compound: CC(C)=CCc1c(O)cc2c(=O)c3ccc(O)cc3oc2c1O
AC50 [7]: 5.16 µM (active)

Compound: CC(Cc1ccccc1)Nc1ncnc2c1ncn2C1OC(CO)C(O)C1O (stereo not drawn)
EC50 [3]: > 112 µM (not active)
EC50 [4]: < 0.701 µM (active)

Compound: CC(C)(C)[S+]([O-])N1Cc2cc(C(=O)N[C@@H]3CCN(Cc4ccccc4)C3)nc(-c3cccc(C#CCC4CCCC4)c3)c2[C@H]1CCO (stereo partly drawn)
AC50 [8]: 3.75 µM (active)

Compound: COc1ccc(CN2CC3(C2)CN(Cc2ccc4c(c2)OCO4)[C@H](CO)c2[nH]c4cc(OC)ccc4c23)cc1
AC50 [8]: 3.49 µM (active)

Compound: COc1ccccc1S(=O)(=O)N[C@H]1CC[C@@H](CCn2cc(C3CCCC3)nn2)O[C@@H]1CO
AC50 [8]: 11.5 µM (active)

Compound: C[C@H]1CN([C@@H](C)CO)C(=O)c2cc(NC(=O)Cc3cn(C)c4ccccc34)ccc2O[C@H]1CN(C)S(=O)(=O)c1ccccc1
AC50 [8]: 4.86 µM (active)

Other lines, results leading:

IC50 [1]: 138 µM (active)
Compound: COCC(C)NCc1ccccc1C (stereo not drawn)

EC50 [2]: > 195 µM (not active)
Compound: Nc1nc(NCc2ccco2)nc(NC2CCCCC2)c1[N+](=O)[O-]

IC50 [5]: > 47.1 µM (inactive)
EC50 [6]: > 53 µM (inactive)
Compound: Cc1ccccc1Nc1scc(-c2ccc(Br)cc2)[n+]1-c1ccccc1C

EC50 [2]: > 195 µM (not active)
Compound: CCc1nn(CC(=O)N2CCC(C(N)=O)CC2)c(=O)c2cc3occc3n12

EC50 [2]: > 195 µM (not active)
Compound: CCCCNC(=O)CN=C(S)N(Cc1ccccc1)Cc1cccs1

EC50 [2]: > 195 µM (not active)
Compound: COc1ccc(N2C(=O)C(C)(C)C2c2c(O)ccc3ccccc23)cc1 (stereo not drawn)

IC50 [5]: > 47.1 µM (inactive)
EC50 [6]: > 53 µM (inactive)
Compound: CCCN(C(=O)CSc1n[nH]c(-c2ccc(OC)cc2)n1)c1c(N)n(Cc2ccccc2)c(=O)[nH]c1=O

EC50 [2]: > 195 µM (not active)
Compound: Cc1ccc(S(=O)(=O)N2CCN(C(=O)c3c(-c4ccccc4)noc3C)CC2)c(C)c1

IC50 [1]: 223 µM (active)
Compound: O=C(/C(=C/c1cccnc1)n1ccnc1)c1ccc(Cl)cc1Cl

IC50 [1]: 148 µM (active)
Compound: Cc1sc2ncnc(N(C)CCc3ccccn3)c2c1C

EC50 [2]: > 195 µM (not active)
Compound: Cc1cccc(CN2CCNC2=O)c1

EC50 [2]: > 195 µM (not active)
Compound: CCOC(=O)CSc1nnc(-c2ccccc2)c(-c2ccccc2)n1

AC50 (Cytochrome P450 2C19): 22.4 µM (inconclusive)
IC50 [5]: > 47.1 µM (inactive)
EC50 [6]: > 53 µM (inactive)
Compound: CCN(CCO)Cc1csc2cccc(Br)c12

IC50 [5]: > 47.1 µM (inactive)
EC50 [6]: > 53 µM (inactive)
Compound: CC(=O)Nc1ccc(NC(=O)C(C)OC(=O)C2CCCCC2)cc1 (stereo not drawn)

EC50 [2]: > 195 µM (not active)
Compound: CCCCn1c(=O)n(CC(=O)Nc2c(CC)cccc2CC)c(=O)c2c1nc(CO)n2CCC

IC50 [5]: > 47.1 µM (inactive)
EC50 [6]: > 53 µM (inactive)
Compound: COc1ccc2[nH]cc(CCN=C(S)NC3CCCC3)c2c1

EC50 [2]: > 195 µM (not active)
AC50 (Cytochrome P450 2C19): 3.55 µM (inconclusive)
Compound: O=C1C2CCCN2c2ccc(S(=O)(=O)N3CCOCC3)cc2N1Cc1cccc(C(F)(F)F)c1 (stereo not drawn)

IC50 [5]: > 47.1 µM (inactive)
EC50 [6]: > 53 µM (inactive)
Compound: CC1=C(C(=O)OC(C)(C)C)C(c2cccc3ccccc23)NC(=O)N1 (stereo not drawn)

EC50 [2]: > 195 µM (not active)
Compound: CCn1c(C(=O)O)c(CC(=O)Nc2ccccc2OC)c2ccccc21

EC50 [2]: > 195 µM (not active)
Compound: Cc1ccc(S(=O)(=O)NC(=NCc2ccccc2)c2ccc(F)cc2)cc1

IC50 [1]: 39.6 µM (active)
Compound: COc1ccc(Cn2nnnc2C(c2cccnc2)N2CCN(c3ccc(O)cc3)CC2)cc1 (stereo not drawn)

IC50 [5]: > 47.1 µM (inactive)
EC50 [6]: > 53 µM (inactive)
Compound: COc1ccc(C2=NN(C)/C(=N\Cc3ccccc3)SC2)cc1

IC50 [1]: 18.5 µM (active)
Compound: N#CC1(Nc2ccc3c4c(cccc24)CC3)CCCCC1

IC50 [5]: 34.8 µM (active)
EC50 [6]: > 53 µM (inactive)
Compound: Nc1cc(OC(=O)c2ccco2)nn1S(=O)(=O)c1ccc(F)cc1

EC50 [2]: > 195 µM (not active)
Compound: CCOc1cc(/C=N/NC(=O)c2cccc(S(=O)(=O)N3CCOCC3)c2)ccc1OCC(=O)N(C)C

IC50 [1]: 29.1 µM (active)
Compound: CN1CCN(/N=C/c2nc(-c3ccccc3)n3ccccc23)CC1

IC50 [1]: 52.1 µM (active)
Compound: CCOc1cc(/C=N/NC(=O)C2CCCC2)ccc1O

EC50 [2]: > 195 µM (not active)
AC50 (Cytochrome P450 2C9): 12.6 µM (inconclusive)
Compound: Cc1cccc(Nc2ccncc2S(=O)(=O)NC(=O)NC(C)C)c1 [TORSEMIDE]
